# Results as given in patent US7928098B2, “Therapeutic and/or preventive agents for a sleep disorder” (Kyowa Hakko Kirin Co., Ltd., priority 2005, dated 2011).
row,Structure (SMILES),melting point
1,"COCCN(C)c1cc(C(=O)Nc2nc(-c3ccco3)c(C(=O)c3ccccc3)s2)ccn1 [Compound 53, N-[5-Benzoyl-4-(2-furyl)thiazol-2-yl]-2-[N-(2-methoxyethyl)-N-methylamino]pyridine-4-carboxamide]",145 to 147 °C
2,"CN1CCN(CC(=O)Nc2nc(-c3ccco3)c(C(=O)C3CCOCC3)s2)CC1 [Compound 467, N-[4-(2-Furyl)-5-(tetrahydropyran-4-ylcarbonyl)thiazol-2-yl]-2-(4-methylpiperazin-1-yl)acetamide]",106 to 112 °C
3,"CCC(=O)c1sc(NC(=O)c2ccncc2)nc1-c1ccco1 [Compound 288, N-[4-(2-Furyl)-5-propionylthiazol-2-yl]pyridine-4-carboxamide]",225 to 240 °C (dec.)
4,"CN1CCCN(CC(=O)Nc2nc(-c3ccco3)c(C(=O)C3CCOCC3)s2)CC1 [Compound 481, N-[4-(2-Furyl)-5-(tetrahydropyran-4-ylcarbonyl)thiazol-2-yl]-2-(4-methyl-1,4-diazepan-1-yl)acetamide]",94 to 96 °C
5,"O=C(Nc1nc(-c2ccco2)c(C(=O)c2cc[nH]c2)s1)c1ccncc1 [Compound 260, N-[4-(2-Furyl)-5-(pyrrol-3-ylcarbonyl)thiazol-2-yl]pyridine-4-carboxamide]",259 to 260 °C
6,"O=C(CN1CCN(C2CCOCC2)CC1)Nc1nc(-c2ccco2)c(C(=O)c2ccccn2)s1 [Compound 187, N-[4-(2-Furyl)-5-(pyridin-2-ylcarbonyl)thiazol-2-yl]-2-[4-(tetrahydropyran-4-yl)piperazin-1-yl]acetamide]",172 to 188 °C
7,"CCn1ccc(C(=O)c2sc(NC(=O)c3ccncc3)nc2-c2ccco2)cc1=O [Compound 276, N-[5-(1-Ethyl-2-oxo-1,2-dihydropyridin-4-ylcarbonyl)-4-(2-furyl)thiazol-2-yl]pyridine-4-carboxamide]",277 to 281 °C
8,"COCCN(C)CC(=O)Nc1nc(-c2ccco2)c(C(=O)C2CCOCC2)s1 [Compound 439, N-[4-(2-Furyl)-5-(tetrahydropyran-4-ylcarbonyl)thiazol-2-yl]-2-[N-(2-methoxyethyl)-N-methylamino]acetamide]",103 to 105 °C
9,"O=C(Nc1nc(-c2ccco2)c(C(=O)c2ccccn2)s1)c1cnc2occc2c1 [Compound 156, N-[4-(2-Furyl)-5-(pyridin-2-ylcarbonyl)thiazol-2-yl]-furo[2,3-b]pyridine-5-carboxamide]",234 to 235 °C
10,"Cc1csc(C(=O)c2sc(NC(=O)c3ccncc3)nc2-c2ccco2)n1 [Compound 257, N-[4-(2-Furyl)-5-(4-methylthiazol-2-ylcarbonyl)thiazol-2-yl]pyridine-4-carboxamide]",250 to 255 °C
11,"O=C1CCC(C(=O)c2sc(NC(=O)c3ccncc3)nc2-c2ccco2)CC1 [Compound 353, N-[4-(2-Furyl)-5-(4-oxocyclohexylcarbonyl)thiazol-2-yl]-pyridine-4-carboxamide]",206 to 212 °C
12,"CCOC(=O)Nc1nc(-c2ccco2)c(C(=O)C2CCOCC2)s1 [Compound 486, Ethyl N-[4-(2-furyl)-5-(tetrahydropyran-4-ylcarbonyl)thiazol-2-yl]carbamate]",152 to 153 °C
13,"Cc1ccc(C(=O)Nc2nc(-c3ccco3)c(C(=O)c3ccccn3)s2)cn1 [Compound 130, N-[4-(2-Furyl)-5-(pyridin-2-ylcarbonyl)thiazol-2-yl]-2-methylpyridine-5-carboxamide]",210 to 215 °C
14,"O=C(Nc1nc(-c2ccco2)c(C(=O)C2CCOCC2)s1)c1cccc2c1OCCO2 [Compound 400, N-[4-(2-Furyl)-5-(tetrahydropyran-4-ylcarbonyl)thiazol-2-yl]-1,4-benzodioxane-5-carboxamide]",188 to 190 °C
15,"O=C(Nc1nc(-c2ccco2)c(C(=O)C2CCCC2)s1)C1CC1 [Compound 339, N-[5-(Cyclopentylcarbonyl)-4-(2-furyl)thiazol-2-yl]cyclopropanecarboxamide]",182 to 187 °C
16,"Cc1cccc(C(=O)Nc2nc(-c3ccco3)c(C(=O)C3CCOCC3)s2)c1 [Compound 364, N-[4-(2-Furyl)-5-(tetrahydropyran-4-ylcarbonyl)thiazol-2-yl]-3-methylbenzamide]",197 to 201 °C
17,"Cc1ccc(C(=O)c2sc(NC(=O)c3ccc(C#N)cc3)nc2-c2ccco2)cn1 [Compound 221, 4-Cyano-N-[4-(2-furyl)-5-(2-methylpyridin-5-ylcarbonyl)thiazol-2-yl]benzamide]",261 to 265 °C
18,"CC(=O)Nc1nc(-c2ccco2)c(C(=O)c2ccccn2)s1 [Compound 96, N-[4-(2-Furyl)-5-(pyridin-2-ylcarbonyl)thiazol-2-yl]-acetamide]",216 to 217 °C
19,"CC(C)(C)C(=O)c1sc(NC(=O)C2CC2)nc1-c1ccco1 [Compound 307, N-[4-(2-Furyl)-5-pivaloylthiazol-2-yl]cyclopropanecarboxamide]",133 to 134 °C

row,Structure (SMILES),melting point
1,"Cc1cc(C(=O)Nc2nc(-c3ccco3)c(C(=O)C3CCC(=O)CC3)s2)ccn1 [Compound 354, N-[4-(2-Furyl)-5-(4-oxocyclohexylcarbonyl)thiazol-2-yl]-2-methylpyridine-4-carboxamide]",108 to 115 °C
2,"O=C(Nc1nc(-c2ccco2)c(C(=O)c2ccccc2)s1)c1ccc(=O)n(Cc2ccncc2)c1 [Compound 60, N-[5-Benzoyl-4-(2-furyl)thiazol-2-yl]-2-oxo-1-(pyridin-4-ylmethyl)-1,2-dihydropyridine-5-carboxamide]",270 to 275 °C
3,"COC[C@@H]1CCCN1CC(=O)Nc1nc(-c2ccco2)c(C(=O)C2CCOCC2)s1 [Compound 443, N-[4-(2-Furyl)-5-(tetrahydropyran-4-ylcarbonyl)thiazol-2-yl]-2-[(2S)-2-(methoxymethyl)pyrrolidin-1-yl]acetamide]",102 to 103 °C
4,"COCCN(C)c1cc(C(=O)Nc2nc(-c3ccco3)c(C(=O)c3ccccn3)s2)ccn1 [Compound 125, N-[4-(2-Furyl)-5-(pyridin-2-ylcarbonyl)thiazol-2-yl]-2-[N-(2-methoxyethyl)-N-methylamino]pyridine-4-carboxamide]",114 to 117 °C
5,"COC(C)(C)CN1CCN(CC(=O)Nc2nc(-c3ccco3)c(C(=O)C3CCOCC3)s2)CC1 [Compound 471, N-[4-(2-Furyl)-5-(tetrahydropyran-4-ylcarbonyl)thiazol-2-yl]-2-[4-(2-methoxy-2-methylpropyl)piperazin-1-yl]acetamide]",105 to 107 °C
6,"O=C(CN1CCC(N2CCOCC2)CC1)Nc1nc(-c2ccco2)c(C(=O)C2CCOCC2)s1 [Compound 458, N-[4-(2-Furyl)-5-(tetrahydropyran-4-ylcarbonyl)thiazol-2-yl]-2-(4-morpholinopiperidino)acetamide]",193 to 195 °C
7,"O=C(CN1CCN(c2ccccc2)CC1)Nc1nc(-c2ccco2)c(C(=O)c2ccccn2)s1 [Compound 184, N-[4-(2-Furyl)-5-(pyridin-2-ylcarbonyl)thiazol-2-yl]-2-(4-phenylpiperazin-1-yl)acetamide]",203 to 204 °C
8,"CC(C)(O)CN1CCN(CC(=O)Nc2nc(-c3ccco3)c(C(=O)C3CCOCC3)s2)CC1 [Compound 470, N-[4-(2-Furyl)-5-(tetrahydropyran-4-ylcarbonyl)thiazol-2-yl]-2-[4-(2-hydroxy-2-methylpropyl)piperazin-1-yl]acetamide]",106 to 108 °C
9,"O=C(Nc1nc(-c2ccco2)c(C(=O)C2CCOCC2)s1)c1ccc(OC(F)(F)F)cc1 [Compound 382, N-[4-(2-Furyl)-5-(tetrahydropyran-4-ylcarbonyl)thiazol-2-yl]-4-(trifluoromethoxy)benzamide]",177 to 180 °C
10,"O=C(c1ccccn1)c1sc(NC(=O)C2CCN(Cc3ccncc3)CC2)nc1-c1ccco1 [Compound 106, N-[4-(2-Furyl)-5-(pyridin-2-ylcarbonyl)thiazol-2-yl]-1-(pyridin-4-ylmethyl)piperidine-4-carboxamide]",240 to 241 °C
11,"O=C(Nc1nc(-c2ccco2)c(C(=O)c2ccccn2)s1)c1ccc(Br)o1 [Compound 143, 5-Bromo-N-[4-(2-furyl)-5-(pyridin-2-ylcarbonyl)thiazol-2-yl]furan-2-carboxamide]",211 to 212 °C
12,"COc1cc(C(=O)Nc2nc(-c3ccco3)c(C(=O)c3ccccn3)s2)cc(OC)c1OC [Compound 112, N-[4-(2-Furyl)-5-(pyridin-2-ylcarbonyl)thiazol-2-yl]-3,4,5-trimethoxybenzamide]",172 to 180 °C (dec.)
13,"COc1ccccc1C(=O)Nc1nc(-c2ccco2)c(C(=O)C2CC2)s1 [Compound 326, N-[5-(Cyclopropylcarbonyl)-4-(2-furyl)thiazol-2-yl]-2-methoxybenzamide]",150 to 154 °C
14,"O=C(Nc1nc(-c2ccco2)c(C(=O)C2CCC2)s1)C1CC1 [Compound 333, N-[5-(Cyclobutylcarbonyl)-4-(2-furyl)thiazol-2-yl]cyclopropanecarboxamide]",200 to 205 °C
15,"COC[C@H]1CCCN1CC(=O)Nc1nc(-c2ccco2)c(C(=O)C2CCOCC2)s1 [Compound 442, N-[4-(2-Furyl)-5-(tetrahydropyran-4-ylcarbonyl)thiazol-2-yl]-2-[(2R)-2-(methoxymethyl)pyrrolidin-1-yl]acetamide]",103 to 104 °C
16,"CC1(O)CCN(CC(=O)Nc2nc(-c3ccco3)c(C(=O)C3CCOCC3)s2)CC1 [Compound 451, N-[4-(2-Furyl)-5-(tetrahydropyran-4-ylcarbonyl)thiazol-2-yl]-2-(4-hydroxy-4-methylpiperidino)acetamide]",151 to 153 °C
17,"COc1ccc(C(=O)c2sc(NC(=O)c3ccncc3)nc2-c2ccco2)cn1 [Compound 226, N-[4-(2-Furyl)-5-(2-methoxypyridin-5-ylcarbonyl)thiazol-2-yl]pyridine-4-carboxamide]",246 to 257 °C (dec.)
18,"O=C(Nc1nc(-c2ccco2)c(C(=O)c2ccccn2)s1)c1cnc(C2CC2)nc1 [Compound 137, 2-Cyclopropyl-N-[4-(2-furyl)-5-(pyridin-2-ylcarbonyl)thiazol-2-yl]pyrimidine-5-carboxamide]",150 to 154 °C
